The values that follow come from US6159733A, “Method for photoinactivating malignant cells” (priority 1996, dated 2000).

Molecules are shown by their SMILES. “Also recorded” adds a separate entry of the source. Read-outs that look alike come from different tables or passages of the source.

One series deals with SK-BR3. The following applies: 15 nM Pc 4, 5×10^6 cells/mL, 8 J/cm^2; cited from earlier work.
In the next series the test system is pluripotent stem cells. The experiment in a line: Photosensitivity of pluripotent stem cells, cobblestone area forming cell (CAFC) assay. Format: cell-based, murine. An excerpt: (§1) Animals. C57B1/6 (Ly-5.2) and B6SJ-cd45 ^b pep 3^b /BOY J (Ly-5.1), were obtained from The Jackson Laboratories (Bar Harbor, Me.) and were maintained in the animal facility of the New York Blood Center. After gamma-irradiation, the animals were housed in microisolator cages and provided with autoclaved food and autoclaved acidified water (pH=3) ad libitum. Preparation of bone marrow cell suspensions--Ly-5.1 mice were used as the source of donor BM. Mice (8-10 weeks old) were killed and the BM was harvested by flushing the femoral shafts with Hank's balanced salt solution (HBSS), pH 7.4. The cell suspensions were centrifuged, washed once and the cells were finally resuspended in HBSS--10% vol/vol fetal bovine serum (FBS, Gemini Bioproducts Inc., Calabasas, Calif.).
(§2) Photosensitization. Aliquots of a 1.87 mM Pc 4 (kindly provided by Dr. M. E. Kenney) stock solution in dimethyl sulfoxide were kept at -80° C. in autoclaved brown glass vials. Immediately prior to the photosensitization, Pc4 was thawed and diluted in dimethyl formamide to yield a 10 μM working solution. […] Pc 4 was used at 15 nM throughout the experiments.
(§3) BM and cell line samples, were incubated with 15 nM Pc 4 for two hours at 37° C. at cell concentrations of 1.5×10^7 cells/mL. Aliquots of 1.5 mL were transferred to 24-well plates; separate plates were used for each sample.
(§4) In a second set of experiments, the cells were incubated with 15 nM Pc 4 at cell concentrations of 1.5×10^6 cells/mL. Prior to photoirradiation, the samples were centrifuged and the supernatants were aspirated and set aside. The cell concentrations were adjusted to 1.5×10^7 cells/mL by adding back an appropriate volume of the Pc 4 containing aspirates.
(§5) Photoinactivation. The light source used was a filtered xenon short arc lamp (Versa-Light, Model UV-R6G, Medic Lightech, Ltd., Haifa, Israel). It was used to deliver red light (λ 600-700 nm) to the sensitized cells. After a 20 minute warm up period of the instrument, the distance from the light source to the bottom of the 24-well plate was adjusted to obtain a fluence rate of 26.6 mW/cm^2, as measured with a radiometer (Model IL 1350, International Light, Newburyport, Mass.). Samples were placed under the light source and were stirred during the irradiations. Before and after the irradiations, samples were kept in the dark.
(§6) Cobblestone area forming cell assay. FBMD-1 stromal cells (gift from Dr. Ploemacher) were cultured at 33° C. in a humidified 5% CO2 -incubator in DMEM supplemented with 3.5 mM HEPES, 2 mM glutaMax (GibcoBRL), 10^-7 M sodium selenite, 10^-4 M β-mercaptoethanol, 10% vol/vol fetal calf serum (Gemini Bioproducts, Inc.), 5% vol/vol horse serum and 10^-5 M hydrocortisone 21-hemisuccinate (Breems, D. A., et al. Leukemia 8:1095 (1994); Van der Loo, J. C. M., et al. Blood 85:2598 (1995)). Prior to each experiment, FBMD-1 cells were harvested from log-phase cultures and fresh layers were prepared by seeding 1,000 cells into individual wells of 96-well flat bottom plates. These plates had been incubated overnight with 0.2% (wt/vol) gelatin to improve adherence of the stromal layer. The outer wells of the plates were filled with 100 μL 0.1 N NaOH to reduce infection.
(§7) The FBDM-1 layers were overlaid with the bone marrow samples in a limiting dilution setup; the first wells receiving 180,000-300,000 cells (Breems, D. A., et al., supra). Ten dilutions 2-fold apart were used for each sample with 18 replicate wells per dilution. The cells were cultured at 33° C. in a humidified 5% CO2 -incubator. For each sample, the fraction of wells with at least one phase-dark hematopoietic clone of at least five cells (cobblestone area) was determined weekly and cobblestone area forming cell frequencies (CAFC) were calculated using the dedicated Poison statistics program LimDil (kindly provided by Dr. Jan Hendrikx). After counting, 100 μL medium was removed from the wells and replaced with 100 μL fresh medium.
(§8) Statistics. […]

Assay in series [1]: as above
The format is cell-based, murine. The settings on record: mouse, bone marrow stem cells, 15 nM.
Description: as §1, §2, §3, §4, §5, §6, §7, §8

Series [2] relates to pluripotent stem cells (Ly-5.1 donor BM in Ly-5.2 mice). The series is described as follows: Bone marrow transplantation and chimerism assay. Format: in vivo. The settings on record: for mice died two months after transplant: sub-lethally irradiated.
Description: as §1, §2, §3, §5
Bone marrow transplantation and chimerism assay. Two month old Ly-5.2 mice were used as recipients in the BM reconstitution assays. […] The irradiated recipient Ly-5.2 mice were divided into six groups. The mice in these groups received either HBSS, untreated control bone marrow, or Pc 4-sensitized BM that was photoirradiated with 0, 6, 12 or 18 J/cm^2, respectively. Each mouse received 250,000 donor BM cells.
Six months after transplantation, peripheral blood was obtained by tail-vein puncture and 40 μL samples were aliquoted into tubes that contained the following antibody cocktails. The first tube contained 4 μL of phycoerythrin (PE) conjugated anti-Ly-5.1 antibody (CD45.1, kind gift from Dr. JoseCarlos Segovia) and 1 μL of fluorescein (FITC) conjugated anti-B220 antibody (B cells; Pharmingen, San Diego, Calif.), the second tube contained 4 μL anti-Ly-5.1^PE and 1 μL of anti-CD3^FITC (T cells; Pharmingen), and the third tube contained 4 μL anti-Ly-5.1^PE and 1 μL of anti-Gr-1^FITC (granulocytes; Pharmingen). Following a 20 minute incubation at room temperature, 2 mL of FACS Lysing Solution (Becton Dickinson (BD), San Jose, Calif.) was added to each sample followed by gentle mixing. After 10 minutes the samples were centrifuged and the pellets were resuspended in 3 mL PBS. After centrifugation, the washed pellets were resuspended in 2% vol/vol formalin--PBS pH 7.4 and the samples were analyzed by flow cytometry within 3 hours after staining.

With `CN(C)CCC[Si](C)(C)O[Si]1(O)n2c3c4ccccc4c2N=C2N=C(N=c4c5ccccc5c(n41)=NC1=NC(=N3)c3ccccc31)c1ccccc12` (stereo not shown) [Pc 4, hydroxysiloxy-dimethylpropyl-N-dimethyl silicon phthalocyanine], the “surviving fraction of human cells” value with SK-BR3 is < 10^-5. Further, in the series on pluripotent stem cells (15 nM, 1.5×10^6 cells/mL, 3 J/cm^2, two values, 40320 min, 0.015 µM), the “relative CAFC day 28 frequency” value is below 0.014. Moreover, the “CAFC frequency compared with untreated samples” value in the series with pluripotent stem cells (15 nM, 1.5×10^7 cells/mL, 6 J/cm^2 (p=0.58)) was “not significantly lower”; in the series on pluripotent stem cells (15 nM, 1.5×10^7 cells/mL, 12 J/cm^2 (p=0.40)), “not significantly lower”; with pluripotent stem cells (15 nM, 1.5×10^7 cells/mL, 18 J/cm^2 (p=0.26)) it was “not significantly lower”. Besides, in the series on pluripotent stem cells (15 nM, 1.5×10^7 cells/mL, 18 J/cm^2, two assays (p=0.69, p=0.78), 40320 min, 0.015 µM), the “relative CAFC frequency on day 28” value was determined as 0.92. Further, the “effect on CAFC frequencies / pluripotent stem cells” value in the series with pluripotent stem cells (15 nM, 1.5×10^7 cells/mL, after irradiation) is recorded as “not affected after irradiation; also recorded: not damaged”. Further, the “photoinactivation of the stem cells (CAFC)” value in the series on pluripotent stem cells (1.5×10^6 cells/mL) was “approximately 2 log10”. For the same compound, the “comparison with MC 540” value in the series with pluripotent stem cells (1.5×10^7 cells/mL, vs Sieber (1987)) was “compared favorable to MC 540”. Also, the “sensitivity of c-kit^+,Sca-1^+ BM fraction to photoinactivation” value in the series with pluripotent stem cells (relative to other cell types) is “least sensitive”. The viability at 672 h, 0.015 µM worked out at 1.8% in series [1] (1.5×10^6 cells/mL, 3 J/cm^2, two values, read-out: relative CAFC day 28 frequency) and 91% in series [1] (1.5×10^7 cells/mL, 18 J/cm^2, two assays (p=0.69, p=0.78), read-out: relative CAFC frequency on day 28). The “long term repopulating (LTR) ability / survival of the pluripotent stem cells” value in series [2] (1.5×10^7 cells/mL, 18 J/cm^2) is given as “not affected by the photoinactivation procedure; also recorded: no adverse affect”. Besides, the mortality entry in series [2] (pilot, lethally irradiated (8.5 Gy), 70,000 untreated or treated donor BM cells) is given as “All mice that received 70,000 cells died within one month”. The “Ly-5.1 chimerism in peripheral blood granulocytes, T cells and B cells” value in series [2] (pilot, lethally irradiated (8.5 Gy), 250,000 donor cells (untreated or treated 15 nM, 1.5×10^7 cells/mL, 18 J/cm2), after 4 months, most mice) is reported as above 70%. In addition, the “difference in chimerism levels from untreated BM group” value in series [2] (six months, 18 J/cm^2) is given as “not significant”. For the same compound, the “chimerism level, granulocytes” value in series [2] (six months, 250,000 BM cells, 18 J/cm^2, untreated BM 0.49±0.01 (p=0.42)) worked out at 0.38±0.08. In addition, in series [2] (six months, 250,000 BM cells, 18 J/cm^2, untreated BM 0.50±0.12 (p=0.53)), the “chimerism level, B cells” value is on record as 0.39±0.11. Further, the “chimerism level, T cells” value in series [2] (six months, 250,000 BM cells, 18 J/cm^2, untreated BM 0.72±0.07 (p=0.42)) is 0.60±0.12. Further, the “mice died two months after transplant” value is 1/6 in series [2] (Pc 4, 0 J/cm^2); 1/6 in series [2] (Pc 4, 6 J/cm^2); 1/6 in series [2] (Pc 4, 18 J/cm^2).
